Measured values reported in patent US20240368125A1, “NOVEL PYRAZINYL-TRIAZOLE COMPOUNDS AS PESTICIDES” (Bayer Aktiengesellschaft, priority 2021, published 2024).

Experiments:
Format in all cases: in vivo
[1] = test system: adult brown dog ticks (Rhipicephalus sanguineus); assay: Rhipicephalus sanguineus in-vitro contact test, adult brown dog ticks; settings: 1 μg/cm^2 (=100 g/ha), after 48 hours
Method: Rhipicephalus sanguineus—In-Vitro Contact Tests with Adult Brown Dog Ticks
(§1) 9 mg compound is solved in 1 mL acetone and diluted with acetone to the desired concentration. 250 μL of the test solution is filled in 25 mL glass test tubes and homogeneously distributed on the inner walls by rotation and tilting on a shaking device (2 h at 30 rpm). With a compound concentration of 900 ppm, an inner surface of 44.7 cm^2 and a homogeneous distribution, a dose of 5 μg/cm^2 is achieved.
After the solvent has evaporated, each test tube is filled with 5-10 adult brown dog ticks (Rhipicephalus sanguineus), closed with a perforated lid and incubated in a lying position at room temperature and relative humidity. After 48 hours efficacy is determined. The ticks are patted on the ground of the tubes and are incubated on a heating plate at 45-50° C. for at most 5 minutes. Immotile or uncoordinated moving ticks, which are not able to escape the heat by climbing upwards, are marked as dead or moribund.
An efficacy of 100% means all ticks are dead or moribund; 0% means no ticks are dead or moribund.

[2] = test system: fall armyworm larvae (Spodoptera frugiperda); assay: Spodoptera frugiperda spray test (SPODFR); settings: in Zea mays, 168 h
Method: Spodoptera frugiperda—Spray Test
Solvent: 78.0 parts by weight acetone • 1.5 parts by weight dimethylformamide
(§2) Emulsifier: alkylarylpolyglycol ether
To produce a suitable preparation of active compound, 1 part by weight of active compound is mixed with the stated amount of solvents and is diluted with water, containing an emulsifier concentration of 1000 ppm, to the desired concentration. Further test concentrations are prepared by dilution with emulsifier containing water.
Maize (Zea mays) leaf sections are sprayed with a preparation of the active ingredient of the desired concentration. Once dry, the leaf sections are infested with fall armyworm larvae (Spodoptera frugiperda).
After 7 days mortality in % is determined. 100% means all caterpillars have been killed and 0% means none of the caterpillars have been killed.
Spodoptera frugiperda—Spray Test (SPODFR
After the specified period of time, mortality in % is determined. 100% means all caterpillars have been killed and 0% means none of the caterpillars have been killed.

[3] = test system: Rhipicephalus (Boophilus) microplus larvae (strain Parkhurst, resistant against synthetic pyrethroids); assay: Rhipicephalus (Boophilus) microplus in-vitro contact test, larval cattle tick; settings: 1 μg/cm^2 (=100 g/ha), after 48 hours; for pest or weed control at 1 µg/cm2: Rhipicephalus microplus, read-out: efficacy (larvae dead or moribund)
Method: Rhipicephalus (Boophilus) Microplus—In-Vitro Contact Tests Larval Cattle Tick (Strain Parkhurst, Resistant Against Synthetic Pyrethroids
as §1
After the solvent has evaporated, each test tube is filled with 20-50 cattle tick larvae (Rhipicephalus microplus), closed with a perforated lid and incubated in a horizontal position at 85% relative humidity and 27° C. in an incubator. After 48 hours efficacy is determined. The larvae are patted on the ground of the tubes and negative geotactic behavior is recorded.

[4] = test system: larvae of the banded cucumber beetle (Diabrotica balteata); assay: Diabrotica balteata spray test; settings: 100 g/ha (=32 μg/well), wheat seeds, after 7 days
Method: Diabrotica balteata—Spray Test
Solvent: 78.0 parts by weight of acetone • • 1.5 parts by weight of dimethylformamide
as §2
To produce a suitable preparation of active compound, 1 part by weight of active compound is mixed with the stated amount of solvent, and the concentrate is diluted with water, containing an emulsifier concentration of 1000 ppm, to the desired concentration. Further test concentrations are prepared by dilution with emulsifier containing water.
Soaked wheat seeds (Triticum aestivum) are placed in a multiple well plate filled with agar and some water and are incubated for 1 day to germinate (5 seeds per well). The germinated wheat seeds are sprayed with a test solution containing the desired concentration of the active ingredient. Afterwards each unit is infected with 10-20 larvae of the banded cucumber beetle (Diabrotica balteata).
After 7 days efficacy in % is determined. 100% means all the seedlings have grown up like in the untreated, uninfected control; 0% means none of the seedlings have grown.

[5] = test system: adult cat fleas (Ctenocephalides felis); assay: Ctenocephalides felis in-vitro contact test, adult cat flea; settings: 1 μg/cm^2 (=100 g/ha), after 48 hours
Method: Ctenocephalides Felis—In-Vitro Contact Tests Adult Cat Flea
as §1
After the solvent has evaporated, each test tube is filled with 5-10 adult cat fleas (Ctenocephalides felis), closed with a perforated lid and incubated in a lying position at room temperature and relative humidity. After 48 hours efficacy is determined. The fleas are patted on the ground of the tubes and are incubated on a heating plate at 45-50° C. for at most 5 minutes. Immotile or uncoordinated moving fleas, which are not able to escape the heat by climbing upwards, are marked as dead or moribund.
An efficacy of 100% means all fleas are dead or moribund; 0% means no fleas are dead or moribund.

SMILES | efficacy (seedlings grown) [4] | efficacy (larvae dead or moribund) [3] | also measured
CCNC(=O)c1cnc(-n2nc(C)nc2[C@H](C)NC(=O)c2cc(C(F)(F)F)cc(C(F)(F)F)c2)cn1 [Example I-013] | – | – | pest or weed control at 1 µg/cm2, 100 g/ha ([1]; Rhipicephalus sanguineus, read-out: efficacy (ticks dead or moribund)): 100%; mortality at 100 g/ha [2]: 100%; pest or weed control at 1 µg/cm2 [3]: 100%
C[C@H](NC(=O)c1cc(OC(F)(F)F)cc(OC(F)(F)F)c1)c1ncnn1-c1cnc(C(=O)NC2CC2)cn1 [Example I-024] | 100% | 100% | efficacy (ticks dead or moribund) [1]: 100%
C[C@H](NC(=O)c1cc(OC(F)(F)F)cc(OC(F)(F)F)c1)c1ncnn1-c1cnc(C(=O)N(C)C)cn1 [Example I-025] | 100% | 100% | efficacy (fleas dead or moribund) [5]: 100%; efficacy (ticks dead or moribund) [1]: 100%
C[C@H](NC(=O)c1cc(OC(F)(F)F)cc(OC(F)(F)F)c1)c1nc(C2CC2)nn1-c1cnc(C(=O)N(C)C)cn1 [Example I-027] | – | – | mortality at 100 g/ha [2]: 83%; pest or weed control at 1 µg/cm2 [3]: 100%
CCNC(=O)c1cnc(-n2nc(C)nc2[C@H](C)NC(=O)c2cc(OC(F)(F)F)cc(OC(F)(F)F)c2)cn1 [Example I-035] | – | – | mortality at 100 g/ha [2]: 100%; pest or weed control at 1 µg/cm2 [3]: 100%
Cc1nc([C@H](C)NC(=O)c2cc(OC(F)(F)F)cc(OC(F)(F)F)c2)n(-c2cnc(C(=O)N(C)C)cn2)n1 [Example I-037] | 100% | 100% | efficacy (fleas dead or moribund) [5]: 100%; efficacy (ticks dead or moribund) [1]: 100%
CCN(C)C(=O)c1cnc(-n2nc(C)nc2[C@H](C)NC(=O)c2cc(OC(F)(F)F)cc(OC(F)(F)F)c2)cn1 [Example I-038] | 100% | 100% | efficacy (fleas dead or moribund) [5]: 100%; efficacy (ticks dead or moribund) [1]: 100%
Cc1nc([C@H](C)NC(=O)c2cc(OC(F)(F)F)cc(S(C)(=O)=O)c2)n(-c2cnc(C(=O)N(C)C3CC3)cn2)n1 [Example I-040] | – | 100% | efficacy (fleas dead or moribund) [5]: 100%; efficacy (ticks dead or moribund) [1]: 100%
CNC(=O)c1cnc(-n2nc(C)nc2[C@H](C)NC(=O)c2cc(OC(F)(F)F)cc(C3CC3)c2)cn1 [Example I-045] | 100% | 100% | efficacy (fleas dead or moribund) [5]: 100%; efficacy (ticks dead or moribund) [1]: 100%
Cc1nc([C@H](C)NC(=O)c2cc(OC(F)(F)F)cc(C3CC3)c2)n(-c2cnc(C(N)=O)cn2)n1 [Example I-046] | 100% | 100% | –
Cc1nc([C@H](C)NC(=O)c2cc(OC(F)(F)F)cc(C3(C)CC3)c2)n(-c2cnc(C(=O)N(C)C)cn2)n1 [Example I-053] | – | 100% | efficacy (fleas dead or moribund) [5]: 80%; efficacy (ticks dead or moribund) [1]: 100%
CNC(=O)c1cnc(-n2nc(C)nc2[C@H](C)NC(=O)c2cc(OC(F)(F)F)cc(C3(C#N)CC3)c2)cn1 [Example I-054] | 100% | – | –
Cc1nc([C@H](C)NC(=O)c2cc(OC(F)(F)F)cc(C3(C#N)CC3)c2)n(-c2cnc(C(=O)N(C)C)cn2)n1 [Example I-055] | – | 100% | efficacy (fleas dead or moribund) [5]: 100%; efficacy (ticks dead or moribund) [1]: 80%
C[C@H](NC(=O)c1cc(C(F)(F)F)cc(C(F)(F)F)c1)c1nc(C2CC2)nn1-c1cnc(C(=O)NC2CC2)cn1 [Example I-056] | 100% | 100% | –
C[C@H](NC(=O)c1cc(C(F)(F)F)cc(C(F)(F)F)c1)c1nc(C2CC2)nn1-c1cnc(C(N)=O)cn1 [Example I-057] | 100% | – | –
C[C@H](NC(=O)c1cc(C(F)(F)F)cc(C(F)(F)F)c1)c1nc(C2CC2)nn1-c1cnc(C(=O)N(C)C2CC2)cn1 [Example I-058] | 100% | – | –

SMILES | efficacy (seedlings grown) [4] | efficacy (larvae dead or moribund) [3] | also measured
C[C@H](NC(=O)c1cc(OC(F)(F)F)cc(OC(F)(F)F)c1)c1nc(C2CC2)nn1-c1cnc(C(N)=O)cn1 [Example I-062] | 100% | 100% | –
C[C@H](NC(=O)c1cc(Br)cc(C(C)(C)F)c1)c1ncnn1-c1cnc(C(N)=O)cn1 [Example I-063] | 100% | – | –
C[C@H](NC(=O)c1cc(OC(F)F)cc(OC(F)F)c1)c1nc(C2CC2)nn1-c1cnc(C(N)=O)cn1 [Example I-070] | 100% | – | –
C[C@H](NC(=O)c1cc(Cl)cc(S(F)(F)(F)(F)F)c1)c1nc(C2CC2)nn1-c1cnc(C(N)=O)cn1 [Example I-074] | 80% | – | –
C[C@H](NC(=O)c1cc(Br)cc(S(F)(F)(F)(F)F)c1)c1nc(C2CC2)nn1-c1cnc(C(N)=O)cn1 [Example I-075] | 100% | – | –
C[C@H](NC(=O)c1cc(OC(F)(F)F)cc(S(C)(=O)=O)c1)c1ncnn1-c1cnc(C(=O)NCC#N)cn1 [Example I-086] | 100% | – | –
Cc1nc([C@H](C)NC(=O)c2cc(OC(F)(F)F)cc(S(C)(=O)=O)c2)n(-c2cnc(C(=O)NCC#N)cn2)n1 [Example I-087] | 100% | – | –
C[C@H](NC(=O)c1cc(Cl)cc(S(C)(=O)=O)c1)c1ncnn1-c1cnc(C(=O)NCC#N)cn1 [Example I-088] | 100% | – | –
C[C@H](NC(=O)c1cc(OC(F)F)cc(OC(F)F)c1)c1ncnn1-c1cnc(C(=O)NCC#N)cn1 [Example I-089] | 100% | – | –
C[C@H](NC(=O)c1cc(OC(F)(F)F)cc(S(C)(=O)=O)c1)c1nc(C2CC2)nn1-c1cnc(C(N)=O)cn1 [Example I-095] | 100% | – | –
C[C@H](NC(=O)c1cc(OC(F)(F)C(F)F)cc(S(C)(=O)=O)c1)c1ncnn1-c1cnc(C(=O)NCC#N)cn1 [Example I-096] | 100% | – | –
CNC(=O)c1cnc(-n2ncnc2[C@H](C)NC(=O)c2cc(Cl)cc(S(C)(=O)=O)c2)cn1 [Example I-098] | – | 100% | –
Cc1nc([C@H](C)NC(=O)c2cc(OC(F)(F)F)cc(OC(F)(F)F)c2)n(-c2cnc(C(=O)N(C)CC#N)cn2)n1 [Example I-101] | 100% | – | –
C[C@H](NC(=O)c1cc(OC(F)(F)F)cc(S(C)(=O)=O)c1)c1ncnn1-c1cnc(C(=O)N(C)CC#N)cn1 [Example I-104] | 100% | – | –
C[C@H](NC(=O)c1cc(OC(F)(F)F)cc(OC(F)(F)F)c1)c1ncnn1-c1cnc(C(=O)N(C)CC#N)cn1 [Example I-105] | 100% | – | –
